Earlier results, collected in patent US11938119B2, “Cannabis production systems and methods” ([…], LLC, priority 2017, dated 2024).

Details: stated "in embodiments"; no solvent system or method printed

SMILES | partition coefficient
C=C(C)[C@@H]1CCC(C)=C[C@H]1c1c(O)cc(CCCCC)cc1O [cannabidiol] | 5.79
CCCCCc1cc(O)c2c(c1)OC(C)(C)[C@@H]1CCC(C)=C[C@@H]21 [tetrahydrocannabinol] | 6.99
